Results taken from patent publication US20180311191A1, “NEW COMBINATION THERAPIES FOR TREATING NEUROLOGICAL DAMAGE” (UNIVERSITAT AUTONOMA DE BARCELONA, priority 2015, published 2018).
Where two headings read alike, the source gives them in different places.

Tests used:
[1] = system: motoneurons (MNs); test: Rat model of peripheral nerve root avulsion (RA model): MN counts and immunohistochemistry at L4-L5 spinal cord; assay type: in vivo; settings: for effect on the neuroprotective effect (MN survival) exerted by C1: RA-injured animals treated with C1 concomitantly
Description: For in vivo studies, a pre-clinical rat model of peripheral nerve root avulsion (RA model) was generated as previously described (see Penas C Cytoskeletal and activity-related changes in spinal motoneurons after root avulsion. Journal of Neurotrauma, 2009). Briefly, a midline skin incision was made at the level of the iliac crest, the right sciatic nerve was identified and the L4 and L5 spinal nerves were separated. A moderate traction was applied to produce extravertebral nerve root avulsion, leading to a retrograde degeneration of around 80% of the injured MNs within a month. The left roots were kept intact as control sham. We intratechally administered the vehicle (artificial cerebrospinal fluid (aCSF) [NaCl (124 mM), KCl (3 mM), NaHCO3 (26 mM), CaCl2/2H2O (2 mM), MgSO4/7H2O (1 mM), KH2PO4 (1.25 mM) and D-Glucose (10 mM)] or the positive control drug for neuroprotection (PRE084, 1-phenylcyclohexanecarboxylate hydrochloride, 1.7 μg/kg/day), C1 (Acamprosate calcium 96 μg/Kg/day (equivalent to 86.9 μg/Kg/day acamprosate free acid)+Ribavirin 0.48 μg/Kg/day) or acamprosate calcium (96 μg/Kg/day) (equivalent to 86.9 μg/Kg/day acamprosate free acid) alone and ribavirin (0.48 μg/Kg/day) alone. For this purpose, we used a programmable micro-infusion pump system (iPrecio, Primetech) to continuously perfuse the drugs into the animal CSF during 20 days from the following day after RA. […] experimental animal groups with RA were defined: one was treated with C1, another was treated with Pre084 (positive control), another was treated with Acamprosate calcium alone (A), another was treated with Ribavirin alone (B), another was treated with vehicle alone, another was left untreated (control). […] Images from microscope were digitally captured and analyzed using several plugins of the ImageJ Software.

[2] = system: NSC-34 motoneuron-like cells; test: MTT cell survival assay of NSC-34 motoneuron-like cells under tunicamycin-induced ER stress; assay type: cell-based, mouse; settings: for MTT assay (% sample vs control), Mean: concomitant TN 1 μg/mL, 24 h, C1 = 0.11 mM acamprosate calcium + 4 μM ribavirin, single drugs 0.11 mM acamprosate calcium, 4 μM ribavirin, 10 μM PRE084; for Corrected Response (Response less control 62.956%) / Response (% neuronal cell survival after ER stress): tunicamycin, MTT
Method: For the in vitro studies, we assessed cell survival of the NSC-34 motoneuron-like cells with a conventional MTT-based assay. NSC-34 is a hybrid cell line produced by fusion of neuroblastoma with mouse motoneuron-enriched primary spinal cord cells, which express properties characteristic of MNs, including the generation of action potentials, the presence of specific neurofilaments and acetylcholine signaling. […] Tunicamycin is a power that was dissolved in DMSO to 10 mg/ml final concentration and then diluted in Dulbeco's modified eagle medium (DMEM) medium at the final working solution indicated in figure legends. The rest of drugs, C1, Acamprosate calcium and Ribavirin were dissolved in water and then in DMEM medium at the final working solutions: 0.11 mM Acamprosate calcium (ACA), 4 μM Ribavirin (RIB) alone or in C1, at a final volume of 100 μI for MTT assays.
We assessed the neuroprotective effect of C1 (acamprosate calcium 0.11 mM+ribavirin 4 μM in 100 μl final volume) when added simultaneous to tunicamycin (TN) in the culture medium. We evaluated cell survival 24 h after the addition of toxin and therapeutic drugs performing an MTT conventional test.
In order to analyze the existence of possible additive neuroprotective effect between drugs, we determined the dose-effect relations of each individual drug (Acamprosate calcium 0.11 mM or Ribavirin 4 μM, both in 100 μI final volume) compared to equivalent doses for C1 (acamprosate calcium 0.11 mM+ribavirin 4 μM in 100 μI final volume).

[3] = system: motoneurons (MNs); settings: cited from earlier work
[4] = acamprosate calcium alone, Dose DA 0.1X (1X = 0.11 mM)
[5] = acamprosate calcium alone, Dose DA 0.2X (1X = 0.11 mM)
[6] = acamprosate calcium alone, Dose DA 0.5X (1X = 0.11 mM)
[7] = acamprosate calcium alone, Dose DA 1X (0.11 mM)
[8] = ribavirin alone, Dose DB 0.1X (1X = 4 μM)
[9] = ribavirin alone, Dose DB 0.2X (1X = 4 μM)
[10] = ribavirin alone, Dose DB 0.5X (1X = 4 μM)
[11] = ribavirin alone, Dose DB 1X (4 μM)

NCCCCNCCCN [spermidine]
effect on the neuroprotective effect (MN survival) exerted by C1 [1]: did maintain it

CC(=O)NCCCS(=O)(=O)O [acamprosate calcium, 3-acetamidopropane-1-sulfonic acid]
MTT assay (% sample vs control), Mean ([2]; NSC-34 cells): 65.80%
Corrected Response (Response less control 62.956%) [2, 4]: 3.52%
Response (% neuronal cell survival after ER stress) [2, 4]: 66.475%
Corrected Response (Response less control 62.956%) [2, 5]: 2.96%
Response (% neuronal cell survival after ER stress) [2, 5]: 65.918%
Corrected Response (Response less control 62.956%) [2, 6]: 3.89%
Response (% neuronal cell survival after ER stress) [2, 6]: 66.849%
Corrected Response (Response less control 62.956%) [2, 7]: 2.46%
Response (% neuronal cell survival after ER stress) [2, 7]: 65.417%

NC(=O)C1CCCc2c1[nH]c1ccc(Cl)cc21 (centres unmarked) [EX-527, 6-chloro-2,3,4,9-tetrahydro-1H-carbazole-1-carboxamide]
effect on the neuroprotective effect (MN survival) exerted by C1 [1]: abolished the neuroprotective effect

NC(=O)c1ncn([C@@H]2O[C@H](CO)[C@@H](O)[C@H]2O)n1 [ribavirin, 1-[(2R,3R,4S,5R)-3,4-dihydroxy-5-(hydroxymethyl)oxolan-2-yl]-1H-1,2,4-triazole-3-carboxamide]
MTT assay (% sample vs control), Mean ([2]; NSC-34 cells): 68.07%
Corrected Response (Response less control 62.956%) [2, 8]: 5.71%
Response (% neuronal cell survival after ER stress) [2, 8]: 68.662%
Corrected Response (Response less control 62.956%) [2, 9]: 7.93%
Response (% neuronal cell survival after ER stress) [2, 9]: 70.886%
Corrected Response (Response less control 62.956%) [2, 10]: 2.72%
Response (% neuronal cell survival after ER stress) [2, 10]: 65.676%
Corrected Response (Response less control 62.956%) [2, 11]: 5.69%
Response (% neuronal cell survival after ER stress) [2, 11]: 68.647%

O=C(OCCN1CCOCC1)C1(c2ccccc2)CCCCC1 [PRE084, 2-(4-Morpholinethyl)1 Phenylcyclohexanecarboxylate]
neuroprotection against TN stress compared with C1 ([2]; NSC-34 cells, TN 1 μg/mL, 10 μM PRE084, MTT): did not neuroprotect the cells as efficiently as C1
MTT assay (% sample vs control), Mean ([2]; NSC-34 cells): 68.81%
induction of MN survival ([3]; spinal root avulsion (Penas et al. 2011)): 50-60%
MN survival compared to the vehicle group ([1]; root avulsed rats, intrathecal infusion 20 days, 21 days post-injury, C1 = 96 μg/Kg/day acamprosate calcium + 0.48 μg/Kg/day ribavirin, PRE084 1.7 μg/kg/day): significantly different to the vehicle group

Nc1nc2ccc(OC(F)(F)F)cc2s1 [riluzole]
neuroprotective effect ([3]; model of spinal root avulsion with reimplantation): maximum observed effect of neuroprotection
neuroprotective effect ([3]; models of root avulsion without reimplantation (Chew 2014)): no neuroprotective effect
